Source: publication PMC11416114 (Infection and Drug Resistance, 2024)
Values joined by “and” are separate entries in the source; they are usually repeats but may differ in a detail not shown here. Identical values can stand only once. Like-named read-outs stand apart in the source and are kept apart here.

Key:
[1] = limit for steady-state Cpeak; cited from earlier work
[2] = cited from earlier work
clinical = settings: human, in vivo, 300 mg
[3] = cited from earlier work; remark: listed apart in the source
[4] = eight CRRT supported critically ill patients; cited from earlier work
[5] = mild to moderate hepatic impairment; cited from earlier work
SARS-CoV-2 = settings: free exposure, cited from earlier work
[6] = cited from earlier work; remark: listed apart in the source
[7] = Chinese patients aged 60 and above; typical patient; cited from earlier work
[8] = critically ill adult patients; for Residual variability (σ) stdev, Final Model Estimate, Mean: log-additive error
[9] = healthy young adults, NIR/RIT 2250mg/100mg once

CC(C)(C)[C@H](NC(=O)C(F)(F)F)C(=O)N1C[C@H]2[C@@H]([C@H]1C(=O)N[C@H](C#N)C[C@@H]1CCNC1=O)C2(C)C [NIR, Nirmatrelvir]
human no observed adverse effect levels (NOAELs) [1]: 79,700 ng/mL
protein binding [2]: approximately 70%
AUC (clinical): 107 µg·h/mL
CL/F lower than normal renal function group ([3]; moderate renal impairment group): 47%
CL/F lower than normal renal function group ([3]; severe renal impairment group): 80%
valley concentrations [4]: 3325.34 to 15625.46 ng/mL
median plasma concentration and AUC in hepatic impairment [5]: comparable to those with normal hepatic function
in vitro EC90 (free) (SARS-CoV-2): 0.0905 µg/mL
EC90 (SARS-CoV-2; read-out: in vitro EC90 (free)): 181 nM
CL/F ([6]; healthy adults aged 18–60): 8.2 L/h
Ka ([6]; healthy adults aged 18–60): 1.11 h⁻¹
V/F ([6]; healthy adults aged 18–60): 111 L
AUC [6, 9]: 188.2 µg·h/mL
CL/F [6, 9]: 3.97 L/h
V/F [6, 9]: 40.06 L
CL/F [7]: 4.16 L/h
Ka [7]: 0.776 h⁻¹
V/F [7]: 39.1 L
absorption rate constant (Ka), mean (SD) [8]: 0.42 (0.10) h^−1 and 0.42 h^−1
apparent clearance (CL/F), mean (SD) [8]: 3.6 (0.26) L/h and 3.6 L/h
Residual variability (σ) stdev, Bootstrap Estimate, Median ([8]; bootstrap): 0.26
dCLdAUCRIT, Bootstrap Estimate, Median ([8]; bootstrap): −0.44
dCLdCrCL, Bootstrap Estimate, Median ([8]; bootstrap): 0.58
ω^2V (inter-individual variability), Bootstrap Estimate, Median ([8]; bootstrap): 0.60
tvCL, Bootstrap of Final Model Estimate, Median ([8]; bootstrap 1000 samples): 3.2 L/h
tvKa, Bootstrap of Final Model Estimate, Median ([8]; bootstrap 1000 samples): 0.61 h⁻¹
Residual variability (σ) stdev, Final Model Estimate, Mean ([8]; final model): 0.26
tvCL, Final Model Estimate, Mean ([8]; one-compartment final model): 3.6 L/h
tvKa, Final Model Estimate, Mean ([8]; one-compartment final model): 0.42 h⁻¹

CC(C)c1nc(CN(C)C(=O)N[C@H](C(=O)N[C@@H](Cc2ccccc2)C[C@H](O)[C@H](Cc2ccccc2)NC(=O)OCc2cncs2)C(C)C)cs1 [RIT, Ritonavir]
Residual variability (σ) stdev, Bootstrap Estimate, Median ([8]; bootstrap): 0.34
ω^2CL (inter-individual variability), Bootstrap Estimate, Median ([8]; bootstrap): 0.53
ω^2V (inter-individual variability), Bootstrap Estimate, Median ([8]; bootstrap): 1.64
tvCL, Bootstrap of Final Model Estimate, Median ([8]; bootstrap 1000 samples): 10.3 L/h
tvKa, Bootstrap of Final Model Estimate, Median ([8]; bootstrap 1000 samples): 1.10 h⁻¹
tvV, Bootstrap of Final Model Estimate, Median ([8]; bootstrap 1000 samples): 82.4 L
ω^2CL (inter-individual variability), Final Model Estimate, Mean ([8]; final model): 0.57
ω^2V (inter-individual variability), Final Model Estimate, Mean ([8]; final model): 1.27
Residual variability (σ) stdev, Final Model Estimate, Mean ([8]; final model): 0.34
tvCL, Final Model Estimate, Mean ([8]; one-compartment final model): 10.3 L/h
tvKa, Final Model Estimate, Mean ([8]; one-compartment final model): 0.64 h⁻¹
tvV, Final Model Estimate, Mean ([8]; one-compartment final model): 84.9 L
